Experimental data from patent US20070072829A1, “Fungicidal composition comprising a pyridylmethylbenzamide derivative and a sulfamide derivative” (priority 2003, published 2007).

Tested on: Plasmopara viticola
Assay: 72 h preventive treatment of vine plants against vine downy mildew, Abbott efficacy, Tammes and Colby analysis
Type: in vivo
[1] = Compound Ia share of the mixture, or Compound Ia alone
[2] = tolylfluanid share of the mixture, or tolylfluanid alone

Structure (SMILES) | ED70: Practical doses for 70% efficacy, dose of Compound Ia [1] [µg/mL] | ED90: Practical doses for 90% efficacy, dose of Compound Ia [1] [µg/mL] | ED70: Practical doses for 70% efficacy, dose of tolylfluanid [2] [µg/mL] | ED90: Practical doses for 90% efficacy, dose of tolylfluanid [2] [µg/mL]
O=C(NCc1ncc(C(F)(F)F)cc1Cl)c1c(Cl)cccc1Cl [Compound Ia, 2,6-dichloro-N-{[3-chloro-5-(trifluoromethyl)-2-pyridinyl]methyl}benzamide] | 27 | 65 | – | –
Cc1ccc(N(SC(F)(Cl)Cl)S(=O)(=O)N(C)C)cc1 [Tolylfluanid, N-dichlorofluoromethylthio-N′,N′-dimethyl-N-p-tolylsulfamide] | – | – | 231.4 | 533.6
